Earlier results, collected in patent US20050037366A1, “Individual drug safety” (priority 2003, published 2005).
“Also recorded” adds a separate entry of the source.

Columns and labels:
[1] = men with hormone-refractory prostate cancer
[2] = rats
[3] = in vivo
ABCC2 (MRP2, cMOAT) = target: T1, ABCC2 (MRP2, cMOAT) (Rattus norvegicus, UniProt Q63120); conditions: rats; ABCC2-mediated mechanisms
T1 construct: host or cells: rats (in vivo, liver canalicular membrane)
T1 sequence (Q63120 whole entry): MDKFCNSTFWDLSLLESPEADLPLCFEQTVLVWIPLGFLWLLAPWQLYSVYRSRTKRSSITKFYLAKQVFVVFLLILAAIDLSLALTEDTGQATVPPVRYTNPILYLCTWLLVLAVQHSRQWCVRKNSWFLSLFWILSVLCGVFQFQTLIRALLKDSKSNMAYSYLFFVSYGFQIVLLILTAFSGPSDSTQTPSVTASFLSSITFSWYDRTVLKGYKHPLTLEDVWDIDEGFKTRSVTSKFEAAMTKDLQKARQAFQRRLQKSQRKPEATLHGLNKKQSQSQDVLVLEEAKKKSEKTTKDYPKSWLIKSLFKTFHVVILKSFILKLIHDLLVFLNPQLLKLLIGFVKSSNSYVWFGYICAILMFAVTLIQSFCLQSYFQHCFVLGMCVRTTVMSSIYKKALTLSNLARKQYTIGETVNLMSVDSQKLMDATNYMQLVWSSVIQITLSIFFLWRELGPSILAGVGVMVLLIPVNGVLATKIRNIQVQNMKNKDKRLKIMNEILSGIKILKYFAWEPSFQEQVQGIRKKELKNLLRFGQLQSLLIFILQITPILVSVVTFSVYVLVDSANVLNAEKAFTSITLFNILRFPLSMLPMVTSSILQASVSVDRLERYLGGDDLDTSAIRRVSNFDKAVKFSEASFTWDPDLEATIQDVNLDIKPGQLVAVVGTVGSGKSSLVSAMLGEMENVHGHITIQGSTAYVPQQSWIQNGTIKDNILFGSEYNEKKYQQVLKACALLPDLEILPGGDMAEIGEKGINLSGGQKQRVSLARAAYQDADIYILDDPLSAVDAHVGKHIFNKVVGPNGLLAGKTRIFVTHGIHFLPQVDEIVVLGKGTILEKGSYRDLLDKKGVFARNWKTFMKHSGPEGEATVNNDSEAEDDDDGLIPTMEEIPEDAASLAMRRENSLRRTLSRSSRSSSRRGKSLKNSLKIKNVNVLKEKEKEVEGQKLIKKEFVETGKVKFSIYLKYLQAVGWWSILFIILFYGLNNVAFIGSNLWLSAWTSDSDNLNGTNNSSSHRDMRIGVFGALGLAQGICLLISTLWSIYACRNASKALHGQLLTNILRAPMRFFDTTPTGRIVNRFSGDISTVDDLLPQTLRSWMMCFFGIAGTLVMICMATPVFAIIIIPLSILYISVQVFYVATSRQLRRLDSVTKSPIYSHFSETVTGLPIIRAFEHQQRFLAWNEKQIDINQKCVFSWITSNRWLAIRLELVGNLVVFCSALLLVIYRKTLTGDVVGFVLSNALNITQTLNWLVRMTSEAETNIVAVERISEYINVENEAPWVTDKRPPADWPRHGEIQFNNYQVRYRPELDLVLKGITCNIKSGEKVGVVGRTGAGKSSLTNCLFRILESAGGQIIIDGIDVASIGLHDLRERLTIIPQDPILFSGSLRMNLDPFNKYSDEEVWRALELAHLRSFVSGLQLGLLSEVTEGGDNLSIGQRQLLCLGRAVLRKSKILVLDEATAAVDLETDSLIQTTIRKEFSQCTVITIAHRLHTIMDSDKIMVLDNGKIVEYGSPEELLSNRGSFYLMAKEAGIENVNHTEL

CCCCN(CCCC)C(=O)CN1C[C@H](c2ccc3c(c2)OCO3)[C@@H](C(=O)O)[C@@H]1c1ccc(OC)cc1 [Atrasentan]
ADRs in phase II study [1]: headache, peripheral edema and rhinitis

CCCC[C@@H](NC(=O)[C@@H](Cc1cn(C(=O)OC)c2ccccc12)NC(=O)[C@H](CC(C)(C)C)NC(=O)N1[C@H](C)CCC[C@@H]1C)C(=O)O [BQ-788]
cerebral blood flow [2]: decrease of cerebral blood flow

COc1ccccc1Oc1c(NS(=O)(=O)c2ccc(C(C)(C)C)cc2)nc(-c2ncccn2)nc1OCCO [Bosentan]
ADR: liver injury [3]: can lead to liver injury; also recorded: can induce cholestatic liver injury
canalicular bile formation (ABCC2 (MRP2, cMOAT)): alters canalicular bile formation
effect on Bsep-mediated canalicular bile salt transport (Bsep (ABCB 11)): inhibition of Bsep-mediated canalicular bile salt transport
